Laboratory results: patent publication US20240424010A1, “NICOTINAMIDE RIBOSIDE TRIOLEATES CHLORIDE, COMPOSITIONS CONTAINING THIS COMPOUND, AND METHODS OF MAKING AND USING THIS COMPOUND” (SOCIETE DES PRODUITS NESTLE S.A., priority 2021, published 2024)

Tests used:
[1] = Stability of NRTOCl and NRCl in DI water at 35° C. for 28 days (released nicotinamide by HPLC); assay type: physicochemical; conditions: DI water, 1000 ppm, 28 days
Protocol: Although NRTOCl is a quaternary ammonium salt, it was not dissolved in water due to the existence of three groups of oleate fatty ester in its structure. Therefore, for the stability study of NRTOCl, this compound was dispersed in DI water using 1% ethanol as a cosolvent. For this purpose, 15 mg of NRTOCl was dissolved in 0.15 ml of ethanol (1%) and then 14.85 ml of DI water was added to the mixture and gently shaken. […] Although the average size of NRTOCl in this sample was 192 nm, the images of TEM disclosed smaller particles with around 50 nm and oval and spherical shapes with aspect ratio close to unity (FIGS. 10A-10C). In the nanoparticles, the NRTOCl structures are stacked on top of each other layer-by-layer. The highly positive charge of NRTO makes the nanoparticles stable in the aqueous phase. After dispersion of NRTOCl in DI water, NRCl was dissolved in DI water, and the stability of these samples were studied at 35° C. for 28 days (FIG. 11). The concentration of each sample was 1000 ppm. As during the hydrolysis reaction of NRTO and NR, both of these compounds released nicotinamide (FIG. 12), and by measuring the released amount of nicotinamide in each sample with HPLC, the remaining amounts of NRTO and NR in each sample were calculated. During this study, any release of NR from NRTO sample was not detected. It signifies that the heavy ester groups in NRTO sample are not hydrolyzed during the time of stability study. Because this study was performed in DI water and the conditions were mild, the NRTO was hydrolyzed from its N-glycoside bond.

[2] = Hydrolysis stability of NRTOCl and NRCl oil-in-water emulsions and NRCl in water at 35° C. for 26 days; assay type: physicochemical
Protocol: The emulsion was prepared using 480 mg of oil stock containing 15 wt. % NRTOCl in canola oil and an aqueous phase (14.52 g) of Na-caseinate (2 wt. %), KCl (0.3 wt. %), NaCl (0.1 wt. %), CaCl2 (0.2 wt. %) and NaN3 (0.01 wt. %).
The emulsion was-prepared using 480 mg of oil stock containing 15 wt. % NRTOCl in canola oil and 0.025 g of lecithin. The aqueous phase (14.5 g) contained Na-caseinate (2 wt. %), KC (0.3 wt. %), NaCl (0.1 wt. %), CaCl2 (0.2 wt. %) and NaN3 (0.01 wt. %).
The emulsion was-prepared using 480 mg of oil stock containing 15 wt. % NRTOCl in canola oil and an aqueous phase (14.52 g) of polysorbate 80 (Tween 80) (2 wt. %).
The emulsion was prepared using around 480 mg of canola oil in an aqueous phase (14.52 g) of NRCl (19 mg), Na-caseinate (2 wt. %), KCl (0.3 wt. %), NaCl (0.1 wt. %), CaCl2 (0.2 wt. %) and NaN3 (0.01 wt. %).
After each specific time of stability for NRTOCl and NRCl emulsions, 1.5 mL of each emulsion was centrifuged (14,000 rpm) for 20 minutes at room temperature.
Since NRTOCl is a very hydrophobic compound, to evaluate its stability in oil phase, an emulsion system was used to study the stability of NRTOCl as a function of time. For this purpose, a 15% w/w solution of NRTOCl in canola oil was used for making different emulsions with Na-caseinate, Tween 80 and lecithin as the emulsifiers (2 wt. %) at room temperature.
When Na-caseinate was used as an emulsifier, the aqueous phase must be a solution of NaCl (0.1 wt. %), CaCl2 (0.2 wt. %) and KCl (0.3 wt. %) because caseinate anion with minus charge and NRTO with positive charge immediately aggregated in DI water. The total oil phase in these emulsions were 3.2 wt. %, and the concentration of NRTOCl in total volume of each emulsion (15 mL) was 4.4 mM. In the emulsions that used Na-caseinate as an emulsifier, NaN3 (0.01 wt. %) was added to prevent the growth of bacteria. When the NRTOCl emulsion was made by 2 wt. % Na-caseinate, its average size and zeta potential in this emulsion (Cas emulsion) were 1020 nm and −14.4 mV respectively.
After making NRTOCl emulsions, a NRCl in canola oil-in-water emulsion was attempted as a control experiment using 3.2% canola oil. The aqueous phase was a solution of Na-caseinate (2 wt. %), NaCl (0.1 wt. %), CaCl2 (0.2 wt. %), KCl (0.3 wt. %) and NaN3 (0.01 wt. %). The concentration of NRCl in total volume (15 mL) of this emulsion was 4.4 mM. Moreover, 15 mL of NRCl solution in DI water was prepared with 4.4 mM concentration as the other control experiment. After preparing three NRTOCl emulsions and two control experiment samples, hydrolysis stability of each sample was studied at 35° C. for 26 days (FIG. 14). The rate of degradation was measured by determination of the released nicotinamide from each sample. […]

[3] = Hydrolysis stability of NRTOCl emulsions and NRCl in water at room temperature for 42 days; assay type: physicochemical; conditions: room temperature, 42 days
Protocol: After each specific time of stability for NRTOCl and NRCl emulsions, 1.5 mL of each emulsion was centrifuged (14,000 rpm) for 20 minutes at room temperature. […] However, during this time of stability study, 52.0% NR was intact in water at room temperature. […] During this time, these emulsions were stable without visible phase separation. A little increase in the average size of the NRTO droplets occurred in these emulsions, so that in Cas emulsion, the average size increased from 1020 nm to 1281 nm, and in Cas-Lec emulsion, this parameter increased from 1012 nm to 1106 nm.

[4] = test system: NAD+ level in mammalian cell; conditions: cited from earlier work
[5] = Solubility study of NRTBCl in long and medium chain triglycerides and in water at different pH; assay type: physicochemical
Protocol: To study the solubility of NRTBCl in long chain triglycerides, we tried to dissolve this compound in olive oil and corn oil. For this purpose, 15 mg of NRTBCl was added to 15 ml of olive oil and vigorously shaked with vortex for 10 minutes at room temperature. […] This procedure was repeated by using corn oil instead of olive oil and the obtained results disclosed that NRTB was insoluble in corn oil. To study the solubility of NRTBCl in medium chain triglycerides, we tried to dissolve this compound in coconut oil. For this purpose, 15 mg of NRTBCl was added to 15 ml of coconut oil and vigorously shaked with vortex for 10 minutes at room temperature. […] To study the solubility of NRTB in water, three aqueous solutions of NRTBCl were prepared with 10000 ppm concentration at pH 5, 7, and 9.

[6] = NRTBCl stability measurement in MQ water at 35° C.; assay type: physicochemical; conditions: 6 days, 1000 ppm, preliminary
Protocol: The stability study of the NRTBCl was performed by dissolving NRTB in MQ water and keeping at 35° C. for 6 days. The concentration of each sample was 1000 ppm. […] The reason for increasing the intensity of the peak at 33 min (flow rate: 0.75 mL/min), is that the byproduct of degradation is nicotinamide (NA), which has the retention time of 33 min (exactly as NRTBCl).

[7] = 15 mg in 15 ml, vortex 10 minutes, room temperature

SMILES | remaining amount after 28 days [1] [%] | solubility in the oil phase of the emulsion [2] | NR hydrolyzed after 42 days [3] [%] | NR intact in water after 42 days ([3]; water) [%] | boost of the level of NAD+ in mammalian cell [4] | solubility (general statement) [5] | solubility in coconut oil [5, 7] | solubility in corn oil [5, 7] | solubility in olive oil [5, 7] | solubility in water at different pH ([5]; 10000 ppm, pH 5, 7, and 9, zeta sizer) | hydrolysis stability in MQ water [6]
NC(=O)c1ccc[n+]([C@@H]2O[C@H](CO)[C@@H](O)[C@H]2O)c1.[Cl-] [NRCl, Nicotinamide riboside chloride, reference compound] | 0.6 | cannot be dissolved | 48 | 52.0 | up to two fold |  |  |  |  |  | 
CCCC(=O)OC[C@H]1O[C@@H]([n+]2cccc(C(N)=O)c2)[C@H](OC(=O)CCC)[C@@H]1OC(=O)CCC.[Cl-] [NRTBCl, nicotinamide riboside tributyrates chloride] |  |  |  |  |  | did not demonstrate good solubility | not dissolved | insoluble | not dissolved | completely be dissolved | easily hydrolyzed
